Assay results reported in patent publication US20250122183A1 (Pfizer Inc., priority 2023, published 2025).

Tests used:
Format in all cases: biochemical
KAT5 Full length enzyme = KAT5 Full length enzyme (Homo sapiens (Human), UniProt Q92993); experiment: KAT5 assay (SAMDI-MS acetylation of H4 1-21 peptide); settings: Morrison equation fit; replicate number in parentheses; read-out: KAT5 Ki (nM) (replicate number)
[1] = target: KAT7+JADE1+EAF6+ING5 4 protein complex (Homo sapiens (Human), UniProt O95251); experiment: KAT7 JADE1 assay (SAMDI-MS acetylation of H3 1-21 peptide); settings: Morrison equation fit; replicate number in parentheses; read-out: KAT7 JADE1 Ki (nM) (replicate number)
KAT8 Full length enzyme = KAT8 Full length enzyme (Homo sapiens (Human), UniProt Q9H7Z6); experiment: KAT8 assay (SAMDI-MS acetylation of H3 1-21 peptide); settings: Morrison equation fit; replicate number in parentheses; read-out: KAT8 Ki (nM) (replicate number)
KAT6A Full length enzyme = KAT6A Full length enzyme (Homo sapiens (Human), UniProt Q92794); experiment: KAT6A assay (SAMDI-MS acetylation of H3 1-21 peptide); settings: Morrison equation fit; replicate number in parentheses; read-out: KAT6A Ki (nM) (replicate number)
Sequence of KAT6A Full length enzyme (Q92794 other isoform, or with tags, fused parts or gaps): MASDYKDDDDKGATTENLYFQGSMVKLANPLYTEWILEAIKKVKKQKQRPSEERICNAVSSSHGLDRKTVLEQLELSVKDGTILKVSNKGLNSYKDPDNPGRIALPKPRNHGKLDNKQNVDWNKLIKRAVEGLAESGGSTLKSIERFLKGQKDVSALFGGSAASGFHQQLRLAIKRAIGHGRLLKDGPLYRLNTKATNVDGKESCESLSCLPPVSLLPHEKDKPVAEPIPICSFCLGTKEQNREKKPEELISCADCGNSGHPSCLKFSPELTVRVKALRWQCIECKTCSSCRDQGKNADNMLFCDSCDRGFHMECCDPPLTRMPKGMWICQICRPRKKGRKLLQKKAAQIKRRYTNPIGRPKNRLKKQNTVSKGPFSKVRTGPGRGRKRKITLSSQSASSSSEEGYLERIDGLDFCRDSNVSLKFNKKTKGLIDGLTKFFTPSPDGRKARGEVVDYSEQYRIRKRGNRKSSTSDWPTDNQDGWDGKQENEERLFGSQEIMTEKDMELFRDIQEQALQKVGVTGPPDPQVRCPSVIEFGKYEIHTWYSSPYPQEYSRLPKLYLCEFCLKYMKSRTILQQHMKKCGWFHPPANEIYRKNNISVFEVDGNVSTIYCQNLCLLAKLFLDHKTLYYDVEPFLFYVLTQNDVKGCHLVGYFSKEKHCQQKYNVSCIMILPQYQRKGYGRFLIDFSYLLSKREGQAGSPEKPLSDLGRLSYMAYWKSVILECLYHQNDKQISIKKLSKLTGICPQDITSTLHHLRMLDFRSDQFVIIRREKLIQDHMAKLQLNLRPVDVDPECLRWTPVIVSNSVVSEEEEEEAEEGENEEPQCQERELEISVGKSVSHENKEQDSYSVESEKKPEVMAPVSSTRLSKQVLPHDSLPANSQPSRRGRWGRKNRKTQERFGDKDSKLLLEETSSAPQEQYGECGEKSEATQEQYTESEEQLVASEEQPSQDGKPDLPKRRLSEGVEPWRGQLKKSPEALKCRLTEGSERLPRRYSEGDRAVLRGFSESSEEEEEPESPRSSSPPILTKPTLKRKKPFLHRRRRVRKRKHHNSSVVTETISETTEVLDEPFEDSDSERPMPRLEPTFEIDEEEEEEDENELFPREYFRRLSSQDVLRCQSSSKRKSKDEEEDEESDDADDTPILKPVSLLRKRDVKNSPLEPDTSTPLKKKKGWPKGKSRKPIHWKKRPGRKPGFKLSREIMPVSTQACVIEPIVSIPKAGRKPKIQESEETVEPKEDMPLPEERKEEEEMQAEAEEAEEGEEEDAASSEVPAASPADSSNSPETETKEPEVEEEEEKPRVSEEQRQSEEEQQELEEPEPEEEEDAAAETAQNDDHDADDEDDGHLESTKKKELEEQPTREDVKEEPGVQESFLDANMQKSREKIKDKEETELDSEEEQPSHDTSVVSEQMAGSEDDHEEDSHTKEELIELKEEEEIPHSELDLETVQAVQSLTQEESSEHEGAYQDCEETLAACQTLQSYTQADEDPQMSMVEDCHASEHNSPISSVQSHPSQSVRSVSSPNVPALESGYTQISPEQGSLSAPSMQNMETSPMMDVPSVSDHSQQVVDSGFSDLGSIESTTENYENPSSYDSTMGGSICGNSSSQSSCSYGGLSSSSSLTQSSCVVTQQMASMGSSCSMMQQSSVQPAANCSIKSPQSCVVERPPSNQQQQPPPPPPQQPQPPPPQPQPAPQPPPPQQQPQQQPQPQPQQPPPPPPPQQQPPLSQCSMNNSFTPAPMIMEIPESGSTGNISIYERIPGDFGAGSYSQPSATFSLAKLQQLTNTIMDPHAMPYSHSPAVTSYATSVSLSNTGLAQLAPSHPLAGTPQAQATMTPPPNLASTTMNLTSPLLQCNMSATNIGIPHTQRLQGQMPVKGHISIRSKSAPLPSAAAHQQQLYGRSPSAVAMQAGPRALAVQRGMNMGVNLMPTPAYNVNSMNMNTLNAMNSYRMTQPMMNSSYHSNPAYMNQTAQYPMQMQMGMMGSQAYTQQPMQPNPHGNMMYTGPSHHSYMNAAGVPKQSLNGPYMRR

Sequence of KAT8 Full length enzyme (Q9H7Z6 whole entry): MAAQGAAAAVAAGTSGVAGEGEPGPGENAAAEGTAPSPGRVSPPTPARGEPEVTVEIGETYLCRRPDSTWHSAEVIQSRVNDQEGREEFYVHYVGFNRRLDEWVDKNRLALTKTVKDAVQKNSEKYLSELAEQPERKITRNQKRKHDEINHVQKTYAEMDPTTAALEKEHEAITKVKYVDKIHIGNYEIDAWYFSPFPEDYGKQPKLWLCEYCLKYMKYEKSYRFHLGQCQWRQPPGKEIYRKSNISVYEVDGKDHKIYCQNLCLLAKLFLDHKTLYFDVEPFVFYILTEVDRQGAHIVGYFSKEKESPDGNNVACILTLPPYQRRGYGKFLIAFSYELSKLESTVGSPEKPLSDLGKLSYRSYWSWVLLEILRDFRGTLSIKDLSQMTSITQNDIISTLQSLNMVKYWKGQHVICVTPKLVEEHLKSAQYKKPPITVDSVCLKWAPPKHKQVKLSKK
Sequence of KAT5 Full length enzyme (Q92993 whole entry): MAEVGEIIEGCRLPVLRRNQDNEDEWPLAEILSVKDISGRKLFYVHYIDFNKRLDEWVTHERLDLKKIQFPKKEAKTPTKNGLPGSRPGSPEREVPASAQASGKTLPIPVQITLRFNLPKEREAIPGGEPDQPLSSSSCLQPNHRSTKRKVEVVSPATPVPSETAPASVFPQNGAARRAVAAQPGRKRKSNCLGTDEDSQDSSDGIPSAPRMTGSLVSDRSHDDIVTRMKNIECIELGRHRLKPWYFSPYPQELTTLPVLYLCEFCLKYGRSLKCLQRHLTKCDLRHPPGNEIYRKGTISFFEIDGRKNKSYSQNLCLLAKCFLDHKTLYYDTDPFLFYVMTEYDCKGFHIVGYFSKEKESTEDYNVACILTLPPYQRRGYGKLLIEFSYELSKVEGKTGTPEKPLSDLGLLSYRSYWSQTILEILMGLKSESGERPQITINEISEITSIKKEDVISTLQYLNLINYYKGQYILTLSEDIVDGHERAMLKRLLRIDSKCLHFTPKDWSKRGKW

Row | SMILES | Ki (KAT5 Full length enzyme) | Ki [1] | Ki (KAT8 Full length enzyme) | Ki (KAT6A Full length enzyme)
1 | COc1cc2c(NS(=O)(=O)c3c(OC)cc(-c4cnn(C)c4)cc3OC)noc2cc1Nc1cc(C2CC2)n[nH]1 [Example 123, N-{6-[(3-cyclopropyl-1H-pyrazol-5-yl)amino]-5-methoxy-1,2-benzoxazol-3-yl}-2,6-dimethoxy-4-(1-methyl-1H-pyrazol-4-yl)benzene-1-sulfonamide] | 246 nM | 10.4 nM | 189 nM | 0.8 nM
2 | CCc1cc(Nc2cc3onc(NS(=O)(=O)c4ccc(C(F)(F)F)cc4Cl)c3cc2OC)n[nH]1 [Example 124, 2-chloro-N-{6-[(5-ethyl-1H-pyrazol-3-yl)amino]-5-methoxy-1,2-benzoxazol-3-yl}-4-(trifluoromethyl)benzene-1-sulfonamide] | 4570 nM | 47.9 nM | 8220 nM | 51.3 nM
3 | CCc1cc(Nc2cc3onc(NS(=O)(=O)c4cccc(Oc5ccccc5C)c4)c3cc2OC)n[nH]1 [Example 125, N-{6-[(5-ethyl-1 H-pyrazol-3-yl)amino]-5-methoxy-1,2-benzoxazol-3-yl}-3-(2-methylphenoxy)benzene-1-sulfonamide] | 5090 nM | 180 nM | > 13000 nM | 48.6 nM
4 | CCc1cc(Nc2cc3onc(NS(=O)(=O)c4cccc(Oc5ccc(C)cc5)c4)c3cc2OC)n[nH]1 [Example 126, N-{6-[(5-ethyl-1 H-pyrazol-3-yl)amino]-5-methoxy-1,2-benzoxazol-3-yl}-3-(4-methylphenoxy)benzene-1-sulfonamide] | 5040 nM | 237 nM | > 13000 nM | 52.1 nM
5 | CCCc1ccc(S(=O)(=O)Nc2noc3cc(Nc4cc(CC)[nH]n4)c(OC)cc23)cc1 [Example 127, N-{6-[(5-ethyl-1 H-pyrazol-3-yl)amino]-5-methoxy-1,2-benzoxazol-3-yl}-4-propylbenzene-1-sulfonamide] | 3940 nM | 175 nM | > 13000 nM | 32.8 nM
6 | CCc1cc(Nc2cc3onc(NS(=O)(=O)c4cccc(Oc5ccc(F)cc5)c4)c3cc2OC)n[nH]1 [Example 128, N-{6-[(5-ethyl-1 H-pyrazol-3-yl)amino]-5-methoxy-1,2-benzoxazol-3-yl}-3-(4-fluorophenoxy)benzene-1-sulfonamide] | 7830 nM | 212 nM | > 13000 nM | 38.1 nM
7 | CCc1cc(Nc2cc3onc(NS(=O)(=O)c4ccc5c(c4)OCCO5)c3cc2OC)n[nH]1 [Example 129, N-{6-[(5-ethyl-1 H-pyrazol-3-yl)amino]-5-methoxy-1,2-benzoxazol-3-yl}-2,3-dihydro-1,4-benzodioxine-6-sulfonamide] | 5630 nM | 244 nM | > 13000 nM | 56.8 nM
8 | CCc1cc(Nc2cc3onc(NS(=O)(=O)c4ccc(-c5ccccc5)cc4)c3cc2OC)n[nH]1 [Example 130, N-{6-[(5-ethyl-1 H-pyrazol-3-yl)amino]-5-methoxy-1,2-benzoxazol-3-yl}[1,1′-biphenyl]-4-sulfonamide] | 2010 nM | 85.2 nM | 7520 nM | 13 nM
9 | CCc1cc(Nc2cc3onc(NS(=O)(=O)c4ccc(Oc5ccccc5)cc4)c3cc2OC)n[nH]1 [Example 132, N-{6-[(5-ethyl-1 H-pyrazol-3-yl)amino]-5-methoxy-1,2-benzoxazol-3-yl}-4-phenoxybenzene-1-sulfonamide] | 5520 nM | 410 nM | > 13000 nM | 82.7 nM
10 | CCc1cc(Nc2cc3onc(NS(=O)(=O)c4ccc(OC)c(F)c4)c3cc2OC)n[nH]1 [Example 133, N-{6-[(5-ethyl-1 H-pyrazol-3-yl)amino]-5-methoxy-1,2-benzoxazol-3-yl}-3-fluoro-4-methoxybenzene-1-sulfonamide] | 6210 nM | 321 nM | > 13000 nM | 78.7 nM
11 | CCc1cc(Nc2cc3onc(NS(=O)(=O)c4cc(Cl)ccc4Cl)c3cc2OC)n[nH]1 [Example 134, 2,5-dichloro-N-{6-[(5-ethyl-1 H-pyrazol-3-yl)amino]-5-methoxy-1,2-benzoxazol-3-yl}benzene-1-sulfonamide] | 4550 nM | 185 nM | 9800 nM | 34.3 nM
12 | CCc1cc(Nc2cc3onc(NS(=O)(=O)c4cc(F)ccc4Br)c3cc2OC)n[nH]1 [Example 135, 2-bromo-N-{6-[(5-ethyl-1H-pyrazol-3-yl)amino]-5-methoxy-1,2-benzoxazol-3-yl}-5-fluorobenzene-1-sulfonamide] | 3080 nM | 156 nM | > 13000 nM | 52.6 nM
13 | CCc1ccc(S(=O)(=O)Nc2noc3cc(Nc4cc(CC)[nH]n4)c(OC)cc23)cc1 [Example 136, 4-ethyl-N-{6-[(5-ethyl-1 H-pyrazol-3-yl)amino]-5-methoxy-1,2-benzoxazol-3-yl}benzene-1-sulfonamide] | 2940 nM | 92.7 nM | > 13000 nM | 16.3 nM
14 | CCc1cc(Nc2cc3onc(NS(=O)(=O)c4cccc(-c5ccc(OC)cc5)c4)c3cc2OC)[nH]n1 [Example 137, N-{6-[(3-ethyl-1 H-pyrazol-5-yl)amino]-5-methoxy-1,2-benzoxazol-3-yl}-4′-methoxy[1,1′-biphenyl]-3-sulfonamide] | 1650 nM | 9.7 nM | > 13000 nM | 12.9 nM
15 | COc1cc2c(NS(=O)(=O)c3c(OC)cc([C@@H]4CCCO4)cc3OC)noc2cc1Nc1cc(C2CC2)n[nH]1 [Example 140, N-{6-[(3-cyclopropyl-1H-pyrazol-5-yl)amino]-5-methoxy-1,2-benzoxazol-3-yl}-2,6-dimethoxy-4-[(2S)-oxolan-2-yl]benzene-1-sulfonamide] | 156 nM | 11.4 nM | 911 nM | 1.5 nM
16 | COc1cc2c(NS(=O)(=O)c3c(OC)cc([C@H]4CCCO4)cc3OC)noc2cc1Nc1cc(C2CC2)n[nH]1 [Example 141, N-{6-[(3-cyclopropyl-1 H-pyrazol-5-yl)amino]-5-methoxy-1,2-benzoxazol-3-yl}-2,6-dimethoxy-4-[(2R)-oxolan-2-yl]benzene-1-sulfonamide] | 134 nM | 6.9 nM | 762 nM | 1 nM
17 | COc1cc2c(NS(=O)(=O)c3c(OC)cc(CN4CC(F)C4)cc3OC)noc2cc1Nc1cc(C2CC2)n[nH]1 [Example 202, N-{6-[(3-cyclopropyl-1H-pyrazol-5-yl)amino]-5-methoxy-1,2-benzoxazol-3-yl}-4-[(3-fluoroazetidin-1-yl)methyl]-2,6-dimethoxybenzene-1-sulfonamide] | 25.4 nM | 5.2 nM | 844 nM | 0.7 nM
18 | COc1cc2c(NS(=O)(=O)c3c(OC)cc(-c4ncccn4)cc3OC)noc2cc1Nc1cc(C2CC2)n[nH]1 [Example 211, N-{6-[(3-cyclopropyl-1 H-pyrazol-5-yl)amino]-5-methoxy-1,2-benzoxazol-3-yl}-2,6-dimethoxy-4-(pyrimidin-2-yl)benzene-1-sulfonamide] | 89.4 nM | 3.7 nM | 1350 nM | 1.1 nM
19 | COc1cc2c(NS(=O)(=O)c3c(OC)cc(-c4cnn(C)n4)cc3OC)noc2cc1Nc1cc(C2CC2)n[nH]1 [Example 212, N-{6-[(3-cyclopropyl-1 H-pyrazol-5-yl)amino]-5-methoxy-1,2-benzoxazol-3-yl}-2,6-dimethoxy-4-(2-methyl-2H-1,2,3-triazol-4-yl)benzene-1-sulfonamide] | 159 nM | 11.1 nM | 1410 nM | 0.7 nM
